Experimental data as given in US20090099169A1, “Benzofuran Compounds As EP1 Receptor Antagonists” (GLAXO GROUP LIMITED, priority 2006, published 2009).
Where a name gives a salt, the structure may show the parent alone.

target: T1, human TP receptor (Homo sapiens, UniProt P21731); experiment: human TP calcium mobilisation assay; format: cell-based; conditions: CHO-K1 cells, antagonism of U46619; averages of a number of experiments; read-out: functional pKi value (human TP calcium mobilisation assay) (converted)
T1 construct: expressed in transfected cells; host or cells: CHO-K1
T1 sequence (P21731 1-343): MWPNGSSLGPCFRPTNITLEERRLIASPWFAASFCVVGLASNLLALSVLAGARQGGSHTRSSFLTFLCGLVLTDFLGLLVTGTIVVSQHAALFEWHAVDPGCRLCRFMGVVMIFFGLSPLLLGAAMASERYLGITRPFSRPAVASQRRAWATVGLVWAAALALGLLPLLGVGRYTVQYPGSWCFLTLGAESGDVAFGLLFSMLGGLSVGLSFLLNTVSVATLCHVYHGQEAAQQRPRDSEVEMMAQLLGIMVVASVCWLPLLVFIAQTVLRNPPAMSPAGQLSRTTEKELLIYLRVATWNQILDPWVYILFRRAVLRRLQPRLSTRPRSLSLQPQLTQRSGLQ
Procedure: To determine if a compound has agonist or antagonist activity at the TP receptor a functional calcium mobilisation assay may be performed. Briefly, the antagonist properties of compounds are assessed by their ability to inhibit the mobilisation of intracellular calcium ([Ca^2+]i) in response to activation of TP receptors by the stable TXA2 mimetic U46619 (9,11-dideoxy-11α,9α-epoxy-methanoprostaglandin F2α; commercially available from e.g Sigma-Aldrich). Increasing concentrations of antagonist reduce the amount of calcium that a given concentration of U46619 can mobilise. The net effect is to displace the U46619 concentration-effect curve. The amount of calcium produced is assessed using a calcium-sensitive fluorescent dye such as Fluo-4, AM and a suitable instrument such as a Fluorimetric Imaging Plate Reader (FLIPR). Increasing amounts of [Ca^2+]i produced by receptor activation increase the amount of fluorescence produced by the dye and give rise to an increasing signal. The signal may be detected using the FLIPR instrument and the data generated may be analysed with suitable curve-fitting software. The agonist activity of the compounds are determined by their ability to cause an increase in intracellular mobilisation in the absence of U46619.
The human TP calcium mobilisation assay utilises Chinese hamster ovary-K1 (CHO-K1) cells into which a stable (pCIN; BioTechniques 20 (1996): 102-110) vector containing TP cDNA has previously been transfected. Cells are cultured in suitable flasks containing culture medium such as DMEM:F-12 supplemented with 10% v/v foetal calf serum, 2 mM L-glutamine, 0.25 mg/ml geneticin, 100 μM flurbiprofen and 10 μg/ml puromycin.
For assay, cells are harvested using a proprietary reagent that dislodges cells such as Versene. Cells are re-suspended in a suitable quantity of fresh culture media for introduction into a 96-well plate. Following incubation for 24 hours at 37° C. the culture media is replaced with a medium containing Fluo-4 and the detergent pluronic acid, and a further incubation takes place. Concentrations of compounds are then added to the plate in order to construct concentration-effect curves. This may be performed on the FLIPR in order to assess the agonist properties of the compounds. Concentrations of U46619 are then added to the plate in order to assess the antagonist properties of the compounds.
The data so generated may be analysed by means of a computerised curve-fitting routine. The concentration of compound that elicits a half-maximal inhibition of the calcium mobilisation induced by U46619 (pIC50) may then be estimated, and the percentage activation caused by the compounds directly can be used to determine if there is any agonism present.

Row | SMILES | Ki [µM]
1 | CCNCc1ccc(NC(=O)c2cc(C)n(Cc3cc(Cl)cc4cc(C(C)C)oc34)n2)cc1 [Example 15, 1-{[5-Chloro-2-(1-methylethyl)-1-benzofuran-7-yl]methyl}-N-{4-[(ethylamino)methyl]phenyl}-5-methyl-1H-pyrazole-3-carboxamide hydrochloride] | > 3.16
2 | Cc1cc(C(=O)Nc2ccc(CN3CCC(O)CC3)cc2)nn1Cc1cc(Cl)cc2cc(C(C)C)oc12 [Example 16, 1-{[5-Chloro-2-(1-methylethyl)-1-benzofuran-7-yl]methyl}-N-{4-[(4-hydroxy-1-piperidinyl)methyl]phenyl}-5-methyl-1H-pyrazole-3-carboxamide hydrochloride] | > 3.16
3 | Cc1cc(C(=O)Nc2ccc(CN3CC[C@@H](O)C3)cc2)nn1Cc1cc(Cl)cc2cc(C(C)C)oc12 [Example 17, 1-{[5-Chloro-2-(1-methylethyl)-1-benzofuran-7-yl]methyl}-N-(4-{[(3R)-3-hydroxy-1-pyrrolidinyl]methyl}phenyl)-5-methyl-1H-pyrazole-3-carboxamide hydrochloride] | > 3.16
4 | Cc1cc(C(=O)NN2CCOCC2)nn1Cc1cc(Cl)cc2cc(C3CCCCC3)oc12 [Example 28, 1-[(5-Chloro-2-cyclohexyl-1-benzofuran-7-yl)methyl]-5-methyl-N-4-morpholinyl-1H-pyrazole-3-carboxamide] | > 3.16

The next lines start with the values.

Row | Ki [µM] | SMILES
5 | < 0.0316 | CC(C)c1cc2cc(Cl)cc(Cc3ccc(C(=O)O)o3)c2o1 [Example 1, 5-{[5-Chloro-2-(1-methylethyl)-1-benzofuran-7-yl]methyl}-2-furancarboxylic Acid]
6 | < 3.16 | Cc1cc(C(=O)O)nn1Cc1cc(Cl)cc2cc(C(C)C)oc12 [Example 3, 1-{[5-Chloro-2-(1-methylethyl)-1-benzofuran-7-yl]methyl}-5-methyl-1H-pyrazole-3-carboxylic Acid]
